Test results as given in article PMC6694155, “PTPσ inhibitors promote hematopoietic stem cell regeneration” (Nature Communications, 2019).
Several values for one entry are separate records, joined by “and”; a condition that tells them apart may be missing. Equal entries are not always repeated.

What was measured:
[1] = target: T1, SHP-1 (Protein-Tyrosine Phosphatase 1C) (Homo sapiens, UniProt P29350); test: PhosphataseProfiler screen: SHP-1; assay type: biochemical; settings: replicates
T1 construct: purchased Eurofins Pharma Discovery Services UK
Method: Compound DJ001 was evaluated in a PhosphataseProfiler™ screen at 10 μM and 1 μM (2.7 μg/mL and 0.27 μg/mL) concentrations at Eurofins Pharma Discovery Services UK (Study number UK022-0004033) against a panel of 21 Phosphatases. In each experiment, the respective reference antagonist/agonist was tested directly with DJ001 and the data were compared with historical values determined at Eurofins. DJ001 compound inhibition was calculated as percentage inhibition of the enzymatic activity compared with control.

[2] = test system: BM KSL cells; test: Cytokine analysis in vitro (BM KSL cell culture supernatants); assay type: cell-based, mouse; parameters: PTN: unit not given beside the values; IL-5 / IL-6 / IL-9 / IL-10 / IL-12(p40) / IL-12(p70) / IL-13 / IL-17 / IP-10 / CXCL12 / EGF / DKK / G-CSF / Eotaxin / GM-CSF / KC / MCP-1 / MIP-1a / M-CSF / MIP-2 / MIG / RANTES / VEGF / TNF-a / IFN-g / IL-1a / IL-1b / IL-2 / IL-4 / IL-3: unit not given here; settings: for IFN-g / IL-1a / IL-1b / IL-2 / IL-3 / IL-4 / IL-5 / IL-6 / IL-9 / IL-10 / IL-12(p40) / IL-12(p70) / IL-13 / IL-17 / IP-10: Supplementary Figure 6a; for CXCL12 / DKK / EGF / Eotaxin / G-CSF / GM-CSF / KC / M-CSF / MCP-1 / MIG / MIP-1a / MIP-2 / PTN / RANTES / TNF-a / VEGF: Supplementary Figure 6b
Method: For in vitro cytokine measurements, 3.5 × 10^4 BM KSL cells were irradiated with 300 cGy and cultured in TSF media with and without 1 μg/mL DJ001. Non-irradiated KSL cells were cultured in TSF media with and without 1 μg/mL DJ001. At 12 h of culture, culture supernatants were collected for analysis. For in vivo cytokine measurements, adult C57BL/6 mice were irradiated with 750 cGy TBI and then treated with 5 mg/kg of DJ001 or vehicle, subcutaneously, from day + 1 to day + 5. Non-irradiated mice received the identical regimen of 5 mg/kg DJ001 or vehicle for 5 days. Mice were killed and BM cells were collected into IMDM. Cells were pelleted and the BM supernatant was collected and sent to the UCLA Immune Assessment Core for cytokine analysis. All samples were tested on a mouse 32-plex Cytokine/Chemokine panel platform from EMD Milipore using Luminex’s xMAP® immunoassay technology (Luminex, Inc.). In addition, the following cytokine levels were assessed by solid-phase ELISA assay according to the manufacturer’s description: CXCL12 (R&D Systems), SCF (R&D Systems), Thrombopoietin (TPO) (R&D Systems), PTN (Biomatik), DKK1 (R&D Systems), and EGF (R&D Systems).

[3] = test system: BM KSL cells; donor CD45.2+ cells; test: In vivo BrdU incorporation analysis; parameters: species or system mouse
Method: For BrdU incorporation analysis in BM KSL cells in vivo, adult C57Bl/6 mice were irradiated with 750 cGy TBI and treated with 5 mg/kg DJ001 or vehicle daily from day + 1 to day + 10. On day + 10, mice were injected intraperitoneally with 2 mg BrdU (BD Biosciences). Sixteen hours later, BM cells were collected and stained with anti-BrdU FITC (BD Biosciences, #557891, 1:50), APC-Cy7-conjugated anti-Sca1 (BD Biosciences, #560654, 1:100), PE-conjugated anti-c-kit (BD Biosciences, #553355, 1:100), and V450 lineage cocktail (BD Biosciences, #561301, 1:10). We repeated this BrdU incorporation analysis on donor CD45.2^+ cells at day + 7 and day + 21 following competitive transplantation into recipient CD45.1^+ mice.

[4] = test system: human BM CD34+ cells; test: Recovery of CD34+CD38− cells from 300 cGy-irradiated human BM CD34+ cells; assay type: cell-based; settings: 36 h, 5 µg/mL DJ001

T1 sequence (P29350 whole entry, species assumed): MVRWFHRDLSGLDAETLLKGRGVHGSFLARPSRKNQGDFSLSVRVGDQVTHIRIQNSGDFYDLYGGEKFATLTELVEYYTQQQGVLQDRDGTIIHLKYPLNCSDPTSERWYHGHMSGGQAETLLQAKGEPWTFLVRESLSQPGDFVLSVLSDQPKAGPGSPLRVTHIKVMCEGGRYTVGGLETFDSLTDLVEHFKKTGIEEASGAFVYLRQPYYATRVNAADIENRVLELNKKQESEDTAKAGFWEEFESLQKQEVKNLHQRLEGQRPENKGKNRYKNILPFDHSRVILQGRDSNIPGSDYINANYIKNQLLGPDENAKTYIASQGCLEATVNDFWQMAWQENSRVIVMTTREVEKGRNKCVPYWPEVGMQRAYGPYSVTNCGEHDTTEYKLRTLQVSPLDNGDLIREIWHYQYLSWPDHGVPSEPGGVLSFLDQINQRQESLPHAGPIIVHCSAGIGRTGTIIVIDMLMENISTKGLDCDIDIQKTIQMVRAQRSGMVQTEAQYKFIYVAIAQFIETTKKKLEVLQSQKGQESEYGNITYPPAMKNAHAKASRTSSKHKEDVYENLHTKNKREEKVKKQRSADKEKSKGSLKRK

O=C(/C=C\Nc1cccc([N+](=O)[O-])c1)c1ccccc1 [DJ001, (Z)-3-((3-nitrophenyl)amino)-1-phenylprop-2-en-1-one]
Supplementary Figure 1: SHP-1 activity ([1]; 2.7 μg/mL DJ001): 81 and 82 and 85 | Supplementary Figure 1: SHP-1 activity ([1]; 0.27 g/mL DJ001): 99 (2×) and 102 | IFN-g ([2]; 300cGy): 0.77 | IL-1a ([2]; 300cGy): 2.07 and 2.11 | IL-1b ([2]; 300cGy): 1.39 | IL-2 ([2]; 300cGy): 2.9 | IL-3 ([2]; 300cGy): 1 | IL-4 ([2]; 300cGy): 0.44 | IL-5 ([2]; 300cGy): 2.67 | IL-6 ([2]; 300cGy): 0.77 and 1.04 | IL-9 ([2]; 300cGy): 36.91 | IL-10 ([2]; 300cGy): 2.29 | IL-12(p40) ([2]; 300cGy): 1.77 and 1.44 and 2.31 | IL-12(p70) ([2]; 300cGy): 3.42 | IL-13 ([2]; 300cGy): 9.36 | IL-17 ([2]; 300cGy): 1.92 | IP-10 ([2]; 300cGy): 2.77 | CXCL12 ([2]; 300cGy): 0 | DKK ([2]; 300cGy): 0 | EGF ([2]; 300cGy): 0 | Eotaxin ([2]; 300cGy): 2.69 | G-CSF ([2]; 300cGy): 0.01 | GM-CSF ([2]; 300cGy): 5.03 | KC ([2]; 300cGy): 1.04 | M-CSF ([2]; 300cGy): 1.85 and 2.24 | MCP-1 ([2]; 300cGy): 4.52 | MIG ([2]; 300cGy): 3.11 | MIP-1a ([2]; 300cGy): 5.42 and 8.81 | MIP-2 ([2]; 300cGy): 16 | PTN ([2]; 300cGy): 10.6601 and 9.687 and 10.9496 | RANTES ([2]; 300cGy): 3.97 | TNF-a ([2]; 300cGy): 4.73 | VEGF ([2]; 300cGy): 1.18 | LIX levels following irradiation ([2]; BM KSL cells, 12 h after 300 cGy, 1 μg/mL DJ001): decreased LIX levels | other cytokines in vitro ([2]; BM KSL cells, 12 h culture, 1 μg/mL DJ001): no effects on any other cytokines | IFN-g ([2]; NI (non-irradiated)): 0.77 | IL-1a ([2]; NI (non-irradiated)): 2.07 | IL-1b ([2]; NI (non-irradiated)): 1.39 | IL-2 ([2]; NI (non-irradiated)): 2.9 | IL-3 ([2]; NI (non-irradiated)): 1 | IL-4 ([2]; NI (non-irradiated)): 0.44 | IL-5 ([2]; NI (non-irradiated)): 2.67 | IL-6 ([2]; NI (non-irradiated)): 0.77 and 1.04 | IL-9 ([2]; NI (non-irradiated)): 36.91 | IL-10 ([2]; NI (non-irradiated)): 2.29 | IL-12(p40) ([2]; NI (non-irradiated)): 1.13 and 2.12 and 1.6 | IL-12(p70) ([2]; NI (non-irradiated)): 3.42 | IL-13 ([2]; NI (non-irradiated)): 9.36 | IL-17 ([2]; NI (non-irradiated)): 1.92 | IP-10 ([2]; NI (non-irradiated)): 2.77 | CXCL12 ([2]; NI (non-irradiated)): 0 | DKK ([2]; NI (non-irradiated)): 0 | EGF ([2]; NI (non-irradiated)): 0 | Eotaxin ([2]; NI (non-irradiated)): 2.69 | G-CSF ([2]; NI (non-irradiated)): 0.01 | GM-CSF ([2]; NI (non-irradiated)): 5.03 | KC ([2]; NI (non-irradiated)): 1.04 | M-CSF ([2]; NI (non-irradiated)): 1.85 and 2.71 | MCP-1 ([2]; NI (non-irradiated)): 4.52 | MIG ([2]; NI (non-irradiated)): 3.11 | MIP-1a ([2]; NI (non-irradiated)): 5.42 and 8.81 | MIP-2 ([2]; NI (non-irradiated)): 16 | PTN ([2]; NI (non-irradiated)): 11.0625 and 10.3876 and 11.8896 | RANTES ([2]; NI (non-irradiated)): 3.97 | TNF-a ([2]; NI (non-irradiated)): 4.73 | VEGF ([2]; NI (non-irradiated)): 1.18 | BrdU incorporation ([3]; Supplementary Figure 7i): 36.54 and 44.684 and 44.262 and 33.456 | BrdU incorporation in donor CD45.2+ cells, DJ001 vs vehicle group ([3]; day +7 and day +21 following competitive transplantation): no difference in BrdU incorporation | BrdU incorporation in BM KSL cells vs vehicle ([3]; day +10 following 750 cGy TBI): increased bromodeoxyuridine (BrdU) incorporation | recovery of viable human BM CD34+CD38− cells following irradiation [4]: increased the recovery
